This note sets out measurements from ChEMBL document CHEMBL5385860, “Antiproliferative, antiangiogenic and apoptotic effect of new hybrids of quinazoline-4(3H)-ones and sulfachloropyridazine” (Eur J Med Chem, 2023).

What is called IC50 is the concentration that inhibits the measured activity by half.

One series concerns A498. The experiment in a line: Cytotoxicity against human A498 cells assessed as growth inhibition at 10 uM relative to control. It is filed as functional. To be noted: read-out: GI.
Series [1] deals with UO-31. The experiment in a line: Cytotoxicity against human UO-31 cells assessed as growth inhibition at 10 uM relative to control. It is filed as functional. To be noted: read-out: GI.
The test system of the next series is LOX IMVI. The experiment in a line: Cytotoxicity against human LOX IMVI cells assessed as growth inhibition at 10 uM relative to control. It is filed as functional. To be noted: read-out: GI.
A further series relates to NCI-H522. The experiment in a line: Cytotoxicity against human NCI-H522 cells assessed as growth inhibition at 10 uM relative to control. To be noted: read-out: GI. Type of series: functional.
A further series relates to SW-620. The series can be described thus: Cytotoxicity against human SW-620 cells assessed as growth inhibition at 10 uM relative to control. To be noted: read-out: GI. Type of series: functional.
In series [2] the test system is SNB-75. The series can be described thus: Cytotoxicity against human SNB-75 cells assessed as growth inhibition at 10 uM relative to control. To be noted: read-out: GI. It is filed as functional.
The subject of a further series is HOP-62. The experiment in a line: Cytotoxicity against human HOP-62 cells assessed as growth inhibition at 10 uM relative to control. Type of series: functional. To be noted: read-out: GI.
Series [3] has as its system M14. The experiment in a line: Cytotoxicity against human M14 cells assessed as growth inhibition at 10 uM relative to control. It is filed as functional. To be noted: read-out: GI.
In a further series the test system is SF-539. The series can be described thus: Cytotoxicity against human SF-539 cells assessed as growth inhibition at 10 uM relative to control. Type of series: functional. To be noted: read-out: GI.
For the next series, the system named is T47D. The experiment in a line: Cytotoxicity against human T47D cells assessed as growth inhibition at 10 uM relative to control. To be noted: read-out: GI. It is filed as functional.
In another series the test system is HOP-92. The series can be described thus: Cytotoxicity against human HOP-92 cells assessed as growth inhibition at 10 uM relative to control. Type of series: functional. To be noted: read-out: GI.
The test system of another series is UACC-62. The series can be described thus: Cytotoxicity against human UACC-62 cells assessed as growth inhibition at 10 uM relative to control. It is filed as functional. To be noted: read-out: GI.
For the next series, the system named is SK-OV-3. The series can be described thus: Cytotoxicity against human SK-OV-3 cells assessed as growth inhibition at 10 uM relative to control. Type of series: functional. To be noted: read-out: GI.
For a further series, the system named is CAKI-1. The experiment in a line: Cytotoxicity against human CAKI-1 cells assessed as growth inhibition at 10 uM relative to control. It is filed as functional. To be noted: read-out: GI.
Another series has as its system Hs-578T. The experiment in a line: Cytotoxicity against human Hs-578T cells assessed as growth inhibition at 10 uM relative to control. Type of series: functional. To be noted: read-out: GI.
A further series deals with Malme-3M. The experiment in a line: Cytotoxicity against human Malme-3M cells assessed as growth inhibition at 10 uM relative to control. Type of series: functional. To be noted: read-out: GI.
For a further series, the system named is SR. The experiment in a line: Cytotoxicity against human SR cells assessed as growth inhibition at 10 uM relative to control. To be noted: read-out: GI. Type of series: functional.
The subject of another series is MDA-MB-468. The series can be described thus: Cytotoxicity against human MDA-MB-468 cells assessed as growth inhibition at 10 uM relative to control. It is filed as functional. To be noted: read-out: GI.
The next series concerns NCI-H226. The series can be described thus: Cytotoxicity against human NCI-H226 cells assessed as growth inhibition at 10 uM relative to control. Type of series: functional. To be noted: read-out: GI.
The subject of the next series is MCF7. The series can be described thus: Cytotoxicity against human MCF7 cells assessed as growth inhibition at 10 uM relative to control. Type of series: functional. To be noted: read-out: GI.
A further series has as its system ACHN. The series can be described thus: Cytotoxicity against human ACHN cells assessed as growth inhibition at 10 uM relative to control. It is filed as functional. To be noted: read-out: GI.
Another series has as its system MDA-MB-231. The series can be described thus: Cytotoxicity against human MDA-MB-231 cells assessed as growth inhibition at 10 uM relative to control. It is filed as functional. To be noted: read-out: GI.
The test system of a further series is UACC-257. The experiment in a line: Cytotoxicity against human UACC-257 cells assessed as growth inhibition at 10 uM relative to control. To be noted: read-out: GI. Type of series: functional.
Series [4] concerns SNB-75. The series can be described thus: cells. To be noted: Homo sapiens, SNB-75, 24 h.
Another series concerns BT-549. The series can be described thus: Cytotoxicity against human BT-549 cells assessed as growth inhibition at 10 uM relative to control. It is filed as functional. To be noted: read-out: GI.
The next series relates to 786-0. The experiment in a line: Cytotoxicity against human 786-0 cells assessed as growth inhibition at 10 uM relative to control. To be noted: read-out: GI. It is filed as functional.
In series [5] the test system is HCT-116. The series can be described thus: cells. To be noted: Homo sapiens, HCT-116, 24 h.
Series [6] has as its system M14. The series can be described thus: cells. To be noted: Homo sapiens, M14, 24 h.
The test system of series [7] is HCT-116. The series can be described thus: Cytotoxicity against human HCT-116 cells assessed as growth inhibition at 10 uM relative to control. Type of series: functional. To be noted: read-out: GI.
The next series deals with EKVX. The experiment in a line: Cytotoxicity against human EKVX cells assessed as growth inhibition at 10 uM relative to control. Type of series: functional. To be noted: read-out: GI.
For another series, the system named is K562. The series can be described thus: Cytotoxicity against human K562 cells assessed as growth inhibition at 10 uM relative to control. It is filed as functional. To be noted: read-out: GI.
Another series relates to HUVEC. The experiment in a line: Cytotoxicity against HUVEC cells assessed as effect on cell morphology at 10 ug/ml measured after 72 hrs. To be noted: human, dose 10 µg/ml. Type of series: toxicity, cell-based.
For series [8], the target named is Vascular endothelial growth factor receptor 2 (Homo sapiens, UniProt P35968). The series can be described thus: Inhibition of recombinant VEGFR2 (unknown origin) by kinase glo detection reagent based assay. A general note: Kinase-Glo reads ATP consumption through a luciferase reaction.
Series [9] has as its system UO-31. The experiment in a line: Induction of apoptosis in human UO-31 cells assessed as increase in caspase-3 level by measuring optical density by Western blot densitometry analysis (reference value: 0.095). It is filed as functional.

Vascular endothelial growth factor receptor 2, sequence (P35968 whole entry): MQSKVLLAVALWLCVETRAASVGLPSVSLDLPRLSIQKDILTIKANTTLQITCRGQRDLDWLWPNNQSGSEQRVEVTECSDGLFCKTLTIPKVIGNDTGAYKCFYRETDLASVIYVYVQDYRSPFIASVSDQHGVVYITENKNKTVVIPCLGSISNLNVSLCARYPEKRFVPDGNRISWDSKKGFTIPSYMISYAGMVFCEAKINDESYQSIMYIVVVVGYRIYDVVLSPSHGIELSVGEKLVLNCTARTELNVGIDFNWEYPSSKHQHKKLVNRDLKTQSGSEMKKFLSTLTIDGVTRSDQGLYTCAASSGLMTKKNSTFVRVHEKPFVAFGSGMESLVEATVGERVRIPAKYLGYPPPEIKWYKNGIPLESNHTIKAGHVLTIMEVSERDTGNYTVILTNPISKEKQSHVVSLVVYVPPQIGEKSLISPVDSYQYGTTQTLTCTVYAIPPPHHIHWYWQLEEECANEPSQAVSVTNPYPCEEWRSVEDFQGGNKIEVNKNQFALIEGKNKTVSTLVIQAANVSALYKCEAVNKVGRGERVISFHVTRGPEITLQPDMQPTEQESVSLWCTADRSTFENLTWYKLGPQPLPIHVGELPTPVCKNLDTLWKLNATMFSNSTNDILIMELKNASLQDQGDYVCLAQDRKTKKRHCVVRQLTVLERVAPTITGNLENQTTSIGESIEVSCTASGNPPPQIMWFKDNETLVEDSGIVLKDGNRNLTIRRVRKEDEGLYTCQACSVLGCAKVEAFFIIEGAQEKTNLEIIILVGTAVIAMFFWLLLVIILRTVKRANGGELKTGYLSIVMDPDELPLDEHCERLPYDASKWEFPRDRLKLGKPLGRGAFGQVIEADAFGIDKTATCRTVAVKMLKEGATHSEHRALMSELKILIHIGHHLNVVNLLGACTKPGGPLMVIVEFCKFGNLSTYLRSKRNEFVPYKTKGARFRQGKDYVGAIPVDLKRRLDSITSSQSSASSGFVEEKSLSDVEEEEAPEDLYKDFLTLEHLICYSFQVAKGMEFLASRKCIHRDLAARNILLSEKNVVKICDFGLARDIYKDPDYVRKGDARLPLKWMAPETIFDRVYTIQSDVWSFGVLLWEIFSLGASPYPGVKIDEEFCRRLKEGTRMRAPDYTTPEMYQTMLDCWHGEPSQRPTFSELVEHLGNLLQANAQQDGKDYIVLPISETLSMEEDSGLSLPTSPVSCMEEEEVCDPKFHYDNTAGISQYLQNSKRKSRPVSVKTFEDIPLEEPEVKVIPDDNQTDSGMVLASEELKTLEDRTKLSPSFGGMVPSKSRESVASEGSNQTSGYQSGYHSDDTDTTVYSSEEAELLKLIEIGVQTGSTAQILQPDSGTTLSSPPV

With `CCCCNC(=O)CSc1nc2ccccc2c(=O)n1-c1ccc(S(=O)(=O)Nc2ccc(Cl)nn2)cc1`, the inhibition of growth at 10 µM in the series with A498 is 25%; with UO-31 [1], 12%.

For the compound `CNC(=O)CSc1nc2ccccc2c(=O)n1-c1ccc(S(=O)(=O)Nc2ccc(Cl)nn2)cc1`, the inhibition of growth at 10 µM with LOX IMVI came out at 24%.

`O=C(CSc1nc2ccccc2c(=O)n1-c1ccc(Cl)c(Cl)c1)Nc1ccc(S(=O)(=O)Nc2ccc(Cl)nn2)cc1`: the inhibition of growth at 10 µM is 10% in the series on NCI-H522; 10% in the series on SW-620; 31% with SNB-75 [2]; 12% with HOP-62; 14% in the series with M14 [3]; 20% in the series on UO-31 [1]. In addition, the inhibition of growth at 10 µM in the series with SF-539 is 10%; in the series on T47D, 14%; with HOP-92, 28%; in the series with UACC-62, 15%; in the series with SK-OV-3 it was 11%; with CAKI-1, 18%.

As to `NS(=O)(=O)c1ccc(NC(=O)CSc2nc3ccccc3c(=O)n2-c2ccc(S(=O)(=O)Nc3ccc(Cl)nn3)cc2)cc1`, the inhibition of growth at 10 µM with SNB-75 [2] came out at 27%; with UO-31 [1], 10%; with UACC-62, 14%; with Hs-578T, 13%; in the series with CAKI-1, 12%.

Regarding `O=c1c2ccccc2[nH]c(=S)n1-c1ccc(S(=O)(=O)Nc2ccc(Cl)nn2)cc1`, the inhibition of growth at 10 µM with NCI-H522 amounted to 11%; with UO-31 [1] it was 17%; in the series with CAKI-1, 10%.

`O=C(CSc1nc2ccccc2c(=O)n1C1CCCCC1)Nc1ccc(S(=O)(=O)Nc2ccc(Cl)nn2)cc1`: the inhibition of growth at 10 µM with Malme-3M was 10%; with SNB-75 [2], 16%; with UO-31 [1] it was 21%; in the series with T47D it was 12%; with HOP-92 it was 25%; in the series on CAKI-1, 14%.

Turning to `CCn1c(SCC(=O)Nc2ccc(S(=O)(=O)Nc3ccc(Cl)nn3)cc2)nc2ccccc2c1=O`, the inhibition of growth at 10 µM in the series on SR was 12%; in the series on A498 it was 10%; with UO-31 [1], 12%.

With `O=C(CSc1nc2ccccc2c(=O)n1-c1ccc(S(=O)(=O)Nc2ccc(Cl)nn2)cc1)NC1CCCCC1`, the inhibition of growth at 10 µM in the series on NCI-H522 is 11%; with SNB-75 [2], 16%; with A498, 11%; in the series with HOP-92 it was 11%; with UACC-62 it was 10%; in the series with Hs-578T, 10%. In addition, the inhibition of growth at 10 µM with MDA-MB-468 was determined as 10%.

As for `O=c1c2cccc(Br)c2[nH]c(=S)n1-c1ccc(S(=O)(=O)Nc2ccc(Cl)nn2)cc1`, the inhibition of growth at 10 µM in the series on NCI-H522 is 12%; in the series with SNB-75 [2] it was 11%; with UO-31 [1], 20%; in the series on CAKI-1, 13%.

Consider `O=C(CSc1nc2ccccc2c(=O)n1Cc1ccccc1)Nc1ccc(S(=O)(=O)Nc2ccc(Cl)nn2)cc1`, for which the inhibition of growth at 10 µM with NCI-H226 is 12%; in the series with SR, 10%; in the series with MCF7, 13%; with HOP-62, 11%; in the series with UO-31 [1], 21%; in the series with ACHN it was 10%. The inhibition of growth at 10 µM with MDA-MB-231 and with CAKI-1 was 13% each time.

`O=C(CSc1nc2ccccc2c(=O)n1-c1ccccc1)Nc1ccc(S(=O)(=O)Nc2ccc(Cl)nn2)cc1`: the inhibition of growth at 10 µM with NCI-H226 worked out at 10%; with UACC-257, 12%; in the series on SNB-75 [2] it was 27%; in the series on UO-31 [1], 21%; in the series on HOP-92, 11%. This compound also displayed an IC50 in the series on SNB-75 [4] of 47.5 µM.

Take `Cc1ccc2[nH]c(=S)n(-c3ccc(S(=O)(=O)Nc4ccc(Cl)nn4)cc3)c(=O)c2c1`: the inhibition of growth at 10 µM was 17% in the series on BT-549; 39% in the series with 786-0; 100% in the series with M14 [3]; 15% in the series on UO-31 [1]; 60% in the series on HCT-116 [7]; 10% in the series on CAKI-1. Further, the IC50 in the series on HCT-116 [5] came to 28 µM; with M14 [6] it was 12.8 µM.

Turning to `COc1cc2[nH]c(=S)n(-c3ccc(S(=O)(=O)Nc4ccc(Cl)nn4)cc3)c(=O)c2cc1OC`, the inhibition of growth at 10 µM in the series on SNB-75 [2] worked out at 10%; in the series with UO-31 [1], 16%; in the series on HCT-116 [7], 11%; in the series with CAKI-1, 10%.

As for `Cn1c(SCC(=O)Nc2ccc(S(=O)(=O)Nc3ccc(Cl)nn3)cc2)nc2ccccc2c1=O`, the inhibition of growth at 10 µM in the series with BT-549 came to 17%; in the series with A498, 19%; in the series on UO-31 [1], 12%; with EKVX, 10%; with HOP-92, 17%.

`O=C(CSc1nc2ccccc2c(=O)n1-c1ccc(S(=O)(=O)Nc2ccc(Cl)nn2)cc1)Nc1ccc(S(=O)(=O)Nc2ccc(Cl)nn2)cc1`: the inhibition of growth at 10 µM was determined as 13% in the series on SR, 12% with K562, 10% with LOX IMVI and 12% in the series on UO-31 [1].

For the compound `O=c1c2cc(Cl)cc(Cl)c2[nH]c(=S)n1-c1ccc(S(=O)(=O)Nc2ccc(Cl)nn2)cc1`, the inhibition of growth at 10 µM with NCI-H522 stood at 10%; in the series on 786-0, 21%; in the series with A498, 12%; in the series on M14 [3], 78%; with UO-31 [1] it was 19%; with HCT-116 [7], 48%. In addition, the inhibition of growth at 10 µM in the series with CAKI-1 turned out to be 11%. The IC50 in the series on HCT-116 [5] worked out at 20 µM; in the series with M14 [6], 40.9 µM.

Regarding `O=c1c2cc3ccccc3cc2[nH]c(=S)n1-c1ccc(S(=O)(=O)Nc2ccc(Cl)nn2)cc1`, the inhibition of growth at 10 µM in the series with NCI-H522 stood at 10%; in the series with MCF7 it was 11%; with LOX IMVI, 12%; in the series with UO-31 [1] it was 18%; in the series on CAKI-1, 10%.

Take `O=C(CSc1nc2ccccc2c(=O)n1CCc1ccccc1)Nc1ccc(S(=O)(=O)Nc2ccc(Cl)nn2)cc1`: the Activity result with HUVEC is “Non-Toxic”. In addition, the IC50 in series [8] is 0.066 µM. Further, the OD with UO-31 [9] was 0.772.
